From the METLIN SMRT retention time set (Domingo-Almenara et al. 2019)

Assay: gradient 5% acetonitrile 3 min, to 50% in 2 min, to 85% in 15 min, held 3 min, 100 µL/min
Settings: column: Zorbax Extend-C18 2.1 x 50 mm; eluents: water / acetonitrile, 0.1% formic acid
Summary of the method: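 Standards, all pure, were combined into mixtures of ~100 molecules and run at 100 μL/min on a Zorbax Extend-C18 column (2.1 × 50 mm, 1.8 μm) with water and acetonitrile, each containing 0.1% formic acid. A coupled quadrupole time-of-flight mass spectrometer operated in positive and negative ionization mode. Retention time values come from computationally picked adduct peaks, each inspected manually.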

| Structure (SMILES) | RP-LC retention time [s] |
| --- | --- |
| COc1ccc(S(=O)(=O)NCc2cccnc2-c2cccc(C)c2)cc1Cl | 756 |
| O=S(=O)(c1cccnc1)N1CCCC(c2nnc(C(F)(F)F)o2)C1 (stereo not given) | 747 |
| O=C(Nc1cc(-c2ccccc2)nn1CCO)c1ccc2nsnc2c1 | 764 |
| O=C(c1nccc2ccccc12)N1CCC(OCC2CC2)C1 (stereo not given) | 722 |
| Cc1ccc(CNC(=O)c2ccccc2CN2C(=O)C3CCCN3C(=O)c3ccccc32)o1 (stereo not given) | 741 |
| COc1ccccc1-c1csc(NC(=O)Cc2csc(-c3ccccc3)n2)n1 | 1150 |
| O=C(NCc1ccccc1F)C1CCN(C(=O)c2ncn3c2COC(c2ccc(F)cc2)C3)CC1 (stereo not given) | 736 |
| CCn1cnc(S(=O)(=O)N2CCCC(C(=O)NCc3ccc(Cl)cc3)C2)c1 (stereo not given) | 756 |
| COc1ccc(-c2noc(Cc3nc(-c4cc(C)c(C)cc4C)cs3)n2)cc1 | 1340 |
| CCN1CCn2c(nc3cc(C(=O)NCC4CCCCC4)ccc32)C1=O | 702 |
| O=C(NCCCN1CCOCC1)C1CCCN(c2ncc(-c3cccc(F)c3)cn2)C1 (stereo not given) | 653 |
| CSc1nc2ccc3nc(NC(=O)C4=COCCO4)sc3c2s1 | 905 |
| Cc1c(Cl)cccc1NC(=O)Cn1c(=O)n(-c2ccc(F)cc2)c(=O)c2c1cc(C)n2C | 880 |
| CS(=O)(=O)N1CCC(C(=O)Nc2ccccc2)Oc2ccc(Cl)cc21 (stereo not given) | 887 |
| CC(C)Cn1ccc2c(cc(C(=O)Nc3ccc(Br)cc3)n2C)c1=O | 979 |
| CNC(=O)[C@@H]1CN(C(=O)CCc2cc(OC)no2)C[C@H]1c1nc(C)no1 | 620 |
| Cc1cccc(N2CCN(C(=O)C3=CCN(Cc4cccc(F)c4)CC3)CC2)c1 | 690 |
| CCCn1cc(S(=O)(=O)N2CCN(c3cccc(Cl)c3)CC2)c2cccnc21 | 761 |
| CCC(=O)n1nc(C)c(S(=O)(=O)N2CCOCC2)c1C | 848 |
| CCn1nc(C)c(CCNC(=O)c2ccc3c(c2)NC(=O)C2CCCCN32)c1C (stereo not given) | 636 |
| Cc1nnsc1C(=O)N1CCC(CNC(=O)c2cc(-c3ccccc3)on2)CC1 | 761 |
| Cc1ccc(CNC(=O)C2CCN(S(C)(=O)=O)c3cc(C)ccc3O2)cc1 (stereo not given) | 912 |
| Cc1ccc(Nc2c(-c3ccc(C(=O)O)cc3)nc3cnccn23)c(C)c1 | 928 |

| Structure (SMILES) | RP-LC retention time [s] |
| --- | --- |
| CN(C)CCNC(=O)C1CCCN(c2ccc(=O)n(-c3cccc(Cl)c3)n2)C1 (stereo not given) | 929 |
| CCc1onc(C)c1C1CCCN1Cc1cc(OC)c(O)c(OC)c1 (stereo not given) | 587 |
| COC1CCC12CCN(C(=O)c1cnn(C)c1)CC2 (stereo not given) | 642 |
| CC1CCCCN1CCNC(=O)Cn1c(=O)c2cccn2c2ccc(F)cc21 (stereo not given) | 612 |
| CC1CCCN(C(=O)c2ccc(-n3cccn3)nc2)C1 (stereo not given) | 825 |
| Cc1c(Cl)cccc1NC(=O)C1CCN(S(=O)(=O)c2ccc3c(c2)NC(=O)CO3)CC1 | 778 |
| CCCCNc1ncc(C(=O)O)c(-c2ccncc2)n1 | 612 |
| Cc1cc(NC(=O)c2nc3ccccc3s2)n(C(C)C)n1 | 806 |
| Cc1nn(C)c(C)c1S(=O)(=O)N1CCC(n2c(C)cnc2-c2ccccc2)C1 (stereo not given) | 618 |
| Cc1ccc(NC(=O)N2C[C@@H](F)C[C@H]2C(=O)N2CCCCC2)c(C)c1 | 732 |
| CC(C)n1c(N2CCN(C(=O)c3ccc4nccnc4c3)CC2)cc(=O)n(C(C)C)c1=O | 701 |
| CCOC(=O)CC(NC(=O)NCc1ccnc(N2CCCCC2)c1)c1ccccc1 (stereo not given) | 645 |
| O=c1c2cc(-c3ccc4c(c3)OCO4)nn2ccn1Cc1nc(-c2ccc(F)cc2)no1 | 1020 |
| Cc1ccn2c(NC(=O)c3ccc4ccccc4c3)c(-c3ccccc3)nc2c1 | 747 |
| CCOC(=O)c1c(C)oc2ncnc(NCCN3CCCc4ccccc43)c12 | 1350 |
| O=C(NC1CC1)c1ccccc1OC1CN(Cc2ccsc2)C1 | 600 |
| O=C(COc1ccccc1-c1nnc(-c2ccccc2)o1)NCc1ccc2c(c1)OCO2 | 1030 |
| CN(Cc1ccccc1)C(=O)CN1C(=O)CCCc2cc(S(=O)(=O)N3CCCCC3)ccc21 | 907 |
| CCN(CC)c1nc2cc(C(=O)OC)ccc2c(=O)n1-c1ccc(C)c(C)c1 | 1270 |
| Clc1ccc(-c2ccc(CNc3nn[nH]n3)o2)c(Cl)c1 | 845 |
| CCc1ccc(CNC(=O)c2cn3ccccc3n2)cc1 | 757 |
| CC1CCCCN1CCNC(=O)c1ccc(-c2ccnc(N3CCCC3)n2)cc1 (stereo not given) | 1230 |
